Several values for one entry are separate records, joined by “and”; a condition that tells them apart may be missing. Identical values can stand only once. Non-standard residues stand in square brackets, D forms with d. No end group written: not given here. DAP = diaminopimelic acid

The first assay has as its system MDCK cells. Type of assay: cell-based, canine. To be noted: MDCK monolayers, modified Hill equation fit; listed as SEQ ID NO. 27; read-out: half maximal effect on Isc (EC50 / K1/2).
Source text: Cell culture: MDCK cells were a generous gift of Dr. Lawrence Sullivan (Kansas University Medical Center, Kansas City, Kans.). T84 cells were obtained from Dr. Daniel Devor (University of Pittsburgh, Pittsburgh, Pa.). MDCK and T84 cells were maintained with similar culture procedures. The culture medium was a 1:1 mixture of DMEM and Ham's F-12 (Gibco BRL, Grand Island, N.Y.) supplemented with 5% heat inactivated fetal bovine serum (BioWhittaker, Walkersville, Md.), and 1% penicillin and streptomycin (Gibco BRL). Cells were grown in plastic culture flasks in a humidified environment with 5% CO2 at 37° C. and passaged every 5-7 days. For Ussing chamber experiments, cells were plated on 1.13 cm^2 permeable supports (Snapwell™, Costar®, Cambridge, Mass.) at a density of approximately 1×10^6 cells/well and incubated in DMEM/F-12 supplemented with FBS and antibiotics (changed every other day) for 2-3 weeks prior to being mounted in modified Ussing flux chambers.
To form monolayers, the cells were plated onto the upper surface of a permeable membrane that forms the bottom of a plastic well. Two types were used. One was the Transwell™ insert (Costar®, Cambridge, Mass.) supported in a six-well tissue culture plate and the other type was the Snapwell™ (Costar®, Cambridge, Mass.). During incubation, the medium was replaced at 48-72 hour intervals. Confluent monolayers formed within 72 hours. Experiments were performed on the monolayers 6-9 days after the initial plating. Net fluid secretion responses were optimal after six days.
Solutions: Ringer solution was made fresh daily. The final concentration (in mM) was 120 NaCl, 25 NaHCO3 3.3 KH2HPO4, 0.8 K2HPO4, 1.2 MgCl2, 1.2 CaCl2, (290±2 mOsmol). All components of the Ringer solution were from Sigma (St. Louis, Mo.).
(§1) Epithelial electrical measurements: Transepithelial ion transport was evaluated in a modified Ussing chamber (Model DCV9, Navicyte, San Diego, Calif.). The Ussing chamber's fluid resistance compensation was completed in Ringer solution (see below). For electrical measurements cell monolayers were bathed in Ringer solution maintained at 37° C. and continuously bubbled with 5% CO2:95% O2. The transepithelial membrane potential (Vte) was clamped to zero and the transepithelial short circuit current (Isc), an indicator of net ion transport, was measured continuously with a voltage clamp apparatus (Model 558C, University of Iowa, Department of Bioengineering, Iowa City, Iowa). Data were digitally acquired at 1 Hz with a Macintosh computer (Apple Computer, Cuppertino, Calif.) using Aqknowledge software (ver. 3.2.6, BIOPAC Systems, Santa Barbara, Calif.) with an MP100A-CE interface.
as §1, with “Transepithelial” for “Epithelial electrical measurements: Transepithelial”, “(composition (in mM) was 120 NaCl, 25 NaHCO3 3.3 KH2HPO4, 0.8 K2HPO4, 1.2 MgCl2, 1.2 CaCl2).” for “(see below).”
MDCK cell monolayers (in the presence of 1-EBIO to maximize basolateral membrane K^+ conductance) were exposed on the apical aspect to escelating peptide concentrations. Maximal change in Isc (relative to the Isc prior to peptide exposure) was recorded following each increment in apical peptide concentration. […]
On to “KKKKAARVGLGITTVLVTTIGLGVRAA [SEQ ID No. 27, KKKKAARVGL GITTVLVTTI GLGVRAA]”, for which the EC50 was 50 µM and ~40 µM.

The assay is the same for the next values; noted with them: MDCK monolayers, modified Hill equation fit; read-out: half maximal effect on Isc (EC50 / K1/2).
Turning to “KKKKAARVGLGITTVLVTTIGLGVRAA [SEQ ID No. 27, KKKKAARVGL GITTVLVTTI GLGVRAA]”, the EC50 is 40 µM.

The same assay, now with this note: MDCK pretreatment, basal conditions.
For `CCn1c(=O)[nH]c2ccccc21` [1-EBIO, reference compound], the “effect on ISC or gTE” value is on record as “no effect”.

Still in this assay, the particulars now being: peptide at 100 μM.
Turning to “KKKKAARVGL GITTVVTTIG LGVRAA (KKKKAARVGLGITTVVTTIGLGVRAA; Modified Homo sapiens) [SEQ ID No. 28]”, the “Activity profile in MDCK cells” value is given as 17.3 at 100 μM μA/cm2.

Staying with this assay, now noted: peptide at 250 μM.
For “KKKKPARVGL GITTVLAARV GLGITTV (KKKKPARVGLGITTVLAARVGLGITTV; Modified Homo sapiens) [SEQ ID No. 21]”, the “Activity profile in MDCK cells” value is listed as 8.0 at 250 μM μA/cm2.

Staying with this assay, now noted: peptide at 300 μM.
Turning to “KKKKARSGSS QTTMTLVTTI GLGVRAA (KKKKARSGSSQTTMTLVTTIGLGVRAA; Modified Homo sapiens) [SEQ ID No. 4]”, the “Activity profile in MDCK cells” value was 18.7 at 300 μM μA/cm2.

Still in this assay, the particulars now being: peptide at 500 μM.
Turning to “KKKKARSGSS QTTMTLARSG SSQTTMT (KKKKARSGSSQTTMTLARSGSSQTTMT; Modified Homo sapiens) [SEQ ID No. 25]”, the “Activity profile in MDCK cells” value was under 1.0 at 500 μM μA/cm2.

For “AARVGLGITT V (AARVGLGITTV; Modified Homo sapiens) [SEQ ID No. 52]”, the “Activity profile in MDCK cells” value was under 1.0 at 500 μM μA/cm2.

For the molecule “ARSGSSQTTM TLVTTIGLGV RAPKKKK (ARSGSSQTTMTLVTTIGLGVRAPKKKK; Modified Homo sapiens) [SEQ ID No. 17]”, the “Activity profile in MDCK cells” value is listed as 3.6 at 500 μM μA/cm2.

In the case of “KKKKPARVGL GITTVLTMTT QSSGS (KKKKPARVGLGITTVLTMTTQSSGS; Modified Homo sapiens) [SEQ ID No. 33]”, the “Activity profile in MDCK cells” value came out at 18.4 at 500 μM μA/cm2.

For the molecule “KKKKARSGSS QTTMTLTMTT QSSGSRA (KKKKARSGSSQTTMTLTMTTQSSGSRA; Modified Homo sapiens) [SEQ ID No. 23]”, the “Activity profile in MDCK cells” value is listed as 4.2 at 500 μM μA/cm2.

On to “GLGITTVLTM TTQSSGSRAK KKK (GLGITTVLTMTTQSSGSRAKKKK; Modified Homo sapiens) [SEQ ID No. 42]”, for which the “Activity profile in MDCK cells” value is given as 3.3 at 500 μM μA/cm2.

Consider “PARVGLGITT V (PARVGLGITTV; Modified Homo sapiens) [SEQ ID No. 48]”, for which the “Activity profile in MDCK cells” value is recorded as under 1.0 at 500 μM μA/cm2.

For “KKKKTMTTQS SGSRALTMTT QSSGSRA (KKKKTMTTQSSGSRALTMTTQSSGSRA; Modified Homo sapiens) [SEQ ID No. 6]”, the “Activity profile in MDCK cells” value is under 1.0 at 500 μM μA/cm2.

With “KKKKPARVGL GITTVLTMTT (KKKKPARVGLGITTVLTMTT; Modified Homo sapiens) [SEQ ID No. 36]”, the “Activity profile in MDCK cells” value was determined as 8.8 at 500 μM μA/cm2.

For the molecule “KKKKTMTTQS SGSRALVTTI GLGVRAA (KKKKTMTTQSSGSRALVTTIGLGVRAA; Modified Homo sapiens) [SEQ ID No. 7]”, the “Activity profile in MDCK cells” value is recorded as under 1.0 at 500 μM μA/cm2.

With “LGITTVLTMT TQSSGSRAKK KK (LGITTVLTMTTQSSGSRAKKKK; Modified Homo sapiens) [SEQ ID No. 43]”, the “Activity profile in MDCK cells” value is reported as under 1.0 at 500 μM μA/cm2.

As for “GITTVLTMTT QSSGSRAKKK K (GITTVLTMTTQSSGSRAKKKK; Modified Homo sapiens) [SEQ ID No. 44]”, the “Activity profile in MDCK cells” value was under 1.0 at 500 μM μA/cm2.

As for “VTTIGLGVRA P (VTTIGLGVRAP; Modified Homo sapiens) [SEQ ID No. 50]”, the “Activity profile in MDCK cells” value was under 1.0 at 500 μM μA/cm2.

Take “VTTIGLGVRA A (VTTIGLGVRAA; Modified Homo sapiens) [SEQ ID No. 53]”: the “Activity profile in MDCK cells” value is under 1.0 at 500 μM μA/cm2.

Regarding “KKKKVTTIGL GVRAPLPARV GLGITTV (KKKKVTTIGLGVRAPLPARVGLGITTV; Modified Homo sapiens) [SEQ ID No. 22]”, the “Activity profile in MDCK cells” value is reported as under 1.0 at 500 μM μA/cm2.

In the case of “KKKKPARVGL GITTVLTMTT Q (KKKKPARVGLGITTVLTMTTQ; Modified Homo sapiens) [SEQ ID No. 35]”, the “Activity profile in MDCK cells” value is 13.1 at 500 μM μA/cm2.

In the case of “KKKKPARVGL GITTVLTMTT QS (KKKKPARVGLGITTVLTMTTQS; Modified Homo sapiens) [SEQ ID No. 34]”, the “Activity profile in MDCK cells” value stood at 20.3 at 500 μM μA/cm2.

For “KKKKVTTIGL GVRAPLARSG SSQTTMT [SEQ ID No. 8]”, the “Activity profile in MDCK cells” value is given as under 1.0 at 500 μM μA/cm2.

In the case of “LTMTTQSSGS RAKKKK (LTMTTQSSGSRAKKKK; Modified Homo sapiens) [SEQ ID No. 46]”, the “Activity profile in MDCK cells” value is reported as under 1.0 at 500 μM μA/cm2.

In the case of “KKKKPARVGL GITTVLTMTT RS (KKKKPARVGLGITTVLTMTTRS; Modified Homo sapiens) [SEQ ID No. 13]”, the “Activity profile in MDCK cells” value is 24.0 at 500 μM μA/cm2.

As to “KKKKPARVGL GITTVLTM (KKKKPARVGLGITTVLTM; Modified Homo sapiens) [SEQ ID No. 38]”, the “Activity profile in MDCK cells” value is listed as 6.8 at 500 μM μA/cm2.

On to “KKKKPARVGL GITTVLPARV GLGITTV (KKKKPARVGLGITTVLPARVGLGITTV; Modified Homo sapiens) [SEQ ID No. 20]”, for which the “Activity profile in MDCK cells” value is given as under 1.0 at 500 μM μA/cm2.

Turning to “KKKKPARVGLGITTVLTMTTQSSGSRAKKKK (KKKKPARVGLGITTVLTMTTQSSGSRAKKKK; Modified Homo sapiens) [SEQ ID No. 47]”, the “Activity profile in MDCK cells” value is listed as 5.0 at 500 μM μA/cm2.

Turning to “TMTTQSSGSR A (TMTTQSSGSRA; Modified Homo sapiens) [SEQ ID No. 49]”, the “Activity profile in MDCK cells” value is listed as under 1.0 at 500 μM μA/cm2.

As for “ITTVLTMTTQ SSGSRAKKKK (ITTVLTMTTQSSGSRAKKKK; Modified Homo sapiens) [SEQ ID No. 45]”, the “Activity profile in MDCK cells” value is under 1.0 at 500 μM μA/cm2.

On to “KKKKPARVGL GITTVL (KKKKPARVGLGITTVL; Modified Homo sapiens) [SEQ ID No. 40]”, for which the “Activity profile in MDCK cells” value came out at 1.5 at 500 μM μA/cm2.

As to “ARSGSSQTTM T (ARSGSSQTTMT; Modified Homo sapiens) [SEQ ID No. 51]”, the “Activity profile in MDCK cells” value was under 1.0 at 500 μM μA/cm2.

As to “RVGLGITTVL TMTTQSSGSR AKKKK (RVGLGITTVLTMTTQSSGSRAKKKK; Modified Homo sapiens) [SEQ ID No. 41]”, the “Activity profile in MDCK cells” value is 6.3 at 500 μM μA/cm2.

On to “KKKKPARVGL GITTVLTMTT QR (KKKKPARVGLGITTVLTMTTQR; Modified Homo sapiens) [SEQ ID No. 14]”, for which the “Activity profile in MDCK cells” value was found to be 20.0 at 500 μM μA/cm2.

On to “KKKKPARVGL GITTVLTRTT (DAP)S (KKKKPARVGLGITTVLTRTT[DAP]S) [SEQ ID No. 32]”, for which the “Activity profile in MDCK cells” value was 24.0 at 500 μM μA/cm2.

“KKKKPARVGL GITTVLTRTT QS (KKKKPARVGLGITTVLTRTTQS; Modified Homo sapiens) [SEQ ID No. 15]”: the “Activity profile in MDCK cells” value is under 1.0 at 500 μM μA/cm2.

Turning to “KKKKPARVGL GITTVWTMTT QSSGSRA (KKKKPARVGLGITTVWTMTTQSSGSRA; Modified Homo sapiens) [SEQ ID No. 10]”, the “Activity profile in MDCK cells” value is given as 20.0 at 500 μM μA/cm2.

Take “KKKKPARVGL GITTVLTMT (KKKKPARVGLGITTVLTMT; Modified Homo sapiens) [SEQ ID No. 37]”: the “Activity profile in MDCK cells” value is recorded as 8.7 at 500 μM μA/cm2.
